Legend:
[1] = tested on: skin-derived CD11c^+CD103^+DCs; experiment: Transwell migration assay; format: cell-based, mouse
Method: Dendritic cell populations were isolated from lymph nodes and skin of naïve 6 week-old C57BL/6 mice. For this purpose, skin tissue was digested in a similar way as tumor tissue and\ cells from skin and lymph node were stained using the previously described protocol for cell sorting. Subsequently, living, CD45^+, CD11c^+, CD8α^− or CD8α^+ cells were isolated from the lymph node sample as well as living, CD45^+, CD11c^+, CD103^+ from skin samples. Migration assays were performed as described previously with minor adaptations using 5×10^5 cells/well and pre-treatment of DC with pertussis toxin (Sigma) at a final concentration of 20 ng/ml for 1.5 h in indicated (Spranger et al. Journal of immunology 185, 738-747 (2010); herein incorporated by reference in its entirety). As a migration stimulus, CCL4 (R&D) was added to RPMI complete medium at 500 ng/ml or 48 h conditioned media from BP or BPC cell lines were used. At the endpoint, cells from the lower compartment as well as the trans-well were harvested and counted using a standard Neubauer counting chamber. Percentage of migrated cells was calculated as followed: count lower-well/(count upper-well+ count lower-well)*100; with the sum of trans-well and lower well-being >90% of the input cell count.

[2] = tested on: β-catenin-negative tumors (BP-SIY); experiment: Migration of pertussis toxin-pretreated effector 2C T cells into tumor; format: in vivo, mouse; details: T cells treated 12 h with PTX before injection
Method: For adoptive T cell transfer experiments, tumor development was induced and transfer of 1×10^6 or 10×10^6 T cells was performed when tumors reached 600-1000 mm^3 (approx. 5-6 weeks after induction). Transferred T cells were isolated from gender-matched 2C donor mice using the Miltenyi CD8^+ enrichment Kit II for untouched CD8^+ T cell isolation. After isolation, cells were activated for three days through plate-bound CD3 (0.2 μg/ml; 145-2C11 clone; Biolegend) and CD28 (0.5 μg/ml; 37.51 clone; BD) antibodies. Following activation, T cells were stained with 1 μm CFSE-solution (eBioscience) for 8 min at 37° C. before intravenous injection. Tumor tissue, tumor-draining LNs, and spleen were harvested 3 days following adoptive transfer of T cells and used for flow cytometric analysis. […] For tumor tissues, the entirety of each sample was acquired and total number of CD3^+CD8^+ T cells and transferred 2C cells was assessed. The percentage 2C cells was calculated as [(100/CD3^+/CD8^+ T cells)*2C] and also the number of 2C cells per gram tumor. […]
To assess if lack of T cell infiltration was due to a defect in effector T cell recruitment, an adoptive T cell transfer approach was used, transferring in vitro-activated effector 2C T cells into tumor bearing BP-SIY and BPC-SIY mice. As a first assessment, only the capacity of the effector T cells to migrate into the tumor within 72 h was analyzed. […]

| Molecule | DC migration in response to CCL4 ([1]; pretreatment of DC with pertussis toxin) | migration of effector 2C T cells into tumor [2] | DC migration ([1]; CCL4 as migration stimulus) |
| --- | --- | --- | --- |
| pertussis toxin | eliminated | completely block the migration | – |
| recombinant murine CCL4: CCL4 (R&D) added as migration stimulus at 500 ng/ml (protein) APMGSDPPTSCCFSYTSRQLHRSFVMDYYETSSLCSKPAVVFLTKRGRQICANPSEPWVTEYMSDLELN | – | – | migrated in response to CCL4 |
